How the values were obtained:
[1] = microbe, parasite or virus in culture; details: Mycobacterium tuberculosis, 96 h, read-out: pIC50 (converted)
[2] = microbe, parasite or virus in culture; details: Mycobacterium tuberculosis, 72 h, read-out: pIC50 (converted)

Compound | IC50 [1] [µM] | IC50 [2] [µM]
CCOCc1cnc2n1CCN(C(=O)Cc1ccccn1)C2C (centres undefined) | > 50.1 | > 50.1
CN(C)c1ncnc2c1CCN(c1cccc(F)c1)CC2 | > 50.1 | > 50.1
O=c1c2sccc2nc2n1CCN(Cc1ccccc1C(F)(F)F)CC2 | > 50.1 | > 50.1
COc1cc(C)sc1C(=O)NCCNc1ccccc1 | 4.3 | 5.82
Cc1ccccc1OCCCNC(=O)NC[C@@H](C)O | > 501 | > 501
CCCNC(=O)c1nnn(-c2ccccc2OC)c1C | 6.03 | 191
Cn1cc(CN2CC[C@@H]3[C@@H](CCC(=O)N3CCC3=CCCCC3)C2)cn1 | > 50.1 | > 50.1
CN1CCC(N(C)CCC(=O)N2CCC(CCc3ccccc3)CC2)C1 (centres undefined) | 35.3 | 41.5
CN(C1CCCC1)S(=O)(=O)NCCNc1ccccn1 | 189 | 94.1
Cc1ccc(F)c(C(=O)N[C@@H]2CNC[C@H]2O)c1Cl | > 501 | > 501
Cc1cc(NC2CCC(=O)N(C)C2)n2nccc2n1 (centres undefined) | > 50.1 | > 50.1
c1nsnc1-c1nc(C2CCCO2)no1 (centres undefined) | > 501 | 118
CS(=O)(=O)NCC1CCCN(C(=O)Nc2ccccc2Cl)C1 (centres undefined) | > 50.1 | > 50.1
Cc1ncsc1CCC(=O)N1CCCC1c1cccnc1 (centres undefined) | > 50.1 | > 50.1
CCc1nc(C2CCCN2C(=O)CCCOc2cccc(F)c2)no1 (centres undefined) | > 50.1 | > 50.1
Cc1ccc(-c2noc(CNS(C)(=O)=O)n2)cc1 | > 501 | 248
COc1cccc(-c2ncc(CN3CC[C@H]4CC[C@@H](C3)N4)s2)c1 | 24.5 | 41.2
NC1(c2nc(-c3ccccc3)c[nH]2)CCCC1 | 258 | 176
Cc1ccc(S(=O)(=O)N2CCOc3ccncc32)cc1 | 457 | 99.3
COc1ccc(F)c(CN2CCCC3(CCN(C4CCOCC4)C3)C2)c1 (centres undefined) | 25.1 | 16.7
COc1ccc(OC)c(NC(=O)COCC(F)(F)F)c1 | > 501 | 227
CCC[C@H]1CN(S(=O)(=O)Cc2ccc(F)cc2)C[C@@H]1N | > 501 | > 501
CCNC(=O)c1cc(-c2ccc(F)cc2)n[nH]1 | > 501 | 209
Cc1nc(N2CCCC2)nc2c1CCN(Cc1ccoc1)CC2 | 14.7 | 22.8
CSCc1ccc(C(=O)N2CC(CC(N)=O)C2)cc1 | > 501 | > 501
CC(C)C(NCC(N)=O)c1ccc(F)cc1 (centres undefined) | > 501 | > 501

Compound | IC50 [1] [µM] | IC50 [2] [µM]
CCN1C(=O)[C@H]2CN(CC(C)C)C[C@H]2C12CCN(S(C)(=O)=O)CC2 | > 50.1 | > 50.1
CC1CCCN(S(=O)(=O)N(C)Cc2ccco2)C1 (centres undefined) | > 501 | > 501
Cc1noc(C)c1CNC(=O)c1csc(S(N)(=O)=O)c1 | > 501 | > 501
NCC1Cc2ccccc21 (centres undefined) | 278 | 114
Cn1ccnc1CN1CCC2(CC(=O)N(c3cncnc3)C2)C1 (centres undefined) | > 50.1 | > 50.1
CN(C(=O)CN)c1ccc(-c2ccccc2)cc1 | 260 | 305
CN(C)C(=O)CCCn1nnc(-c2ccsc2)n1 | 155 | 89.8
N#CCCn1ncc2c(NCc3cccs3)ncnc21 | > 501 | 399
O=C(CNc1ccccc1F)N1CCCCC1 | 36.6 | 71.6
COc1cccc(CCC(=O)N2CCCC2)c1 | 8 | 2.73
COc1cc(Br)ccc1CCCNC(=O)c1c[nH]nn1 | 335 | 143
N#CCC1(O)CN(S(=O)(=O)C=Cc2ccc(Cl)cc2)C1 | > 501 | 287
Cc1oc(C)c(C(=O)NCC(=O)N2CCCC2)c1C | > 501 | > 501
Cc1cc(S(=O)(=O)NC2CCS(=O)(=O)C2)c(C)s1 (centres undefined) | 310 | 97.4
c1cncc(CN2CCCC(c3nnc(-c4cnccn4)o3)C2)c1 (centres undefined) | > 50.1 | > 50.1
Cc1cc2nc(C(C)C)cc(N(C)CC3CCCN3C)n2n1 (centres undefined) | > 50.1 | 9.21
CCOc1ccc(OCc2nccc(-c3cc(C(=O)O)ccn3)n2)cc1 | > 50.1 | > 50.1
COc1ccc([S+]([O-])Cc2noc(C)n2)cc1 (centres undefined) | 143 | 206
COc1ccc(Cl)c(S(=O)(=O)NCCC(C)N)c1 (centres undefined) | 187 | 116
CCCN(C)S(=O)(=O)NC(C)c1ccc(OC)c(F)c1 (centres undefined) | 163 | 153
COc1ccc(-c2ccccc2CCN)c(OC)c1 | 41.6 | 48.2
O=C(Nc1cccc(-n2cccn2)c1)N1CCSCC1 | > 501 | > 501
CCCc1nnc(N2CCC3(CC2)OCC(C)O3)s1 (centres undefined) | 45.5 | 34.3
O=C(c1cc(Cl)c[nH]1)N1CCOC(c2cccs2)C1 (centres undefined) | > 501 | 50.5
COc1cccc(-c2ncc(CN)s2)c1 | 282 | 161
CCOc1ccc(Cl)cc1CCNS(=O)(=O)N(C)C | 282 | 245
